Measurements: ChEMBL document CHEMBL4184210, “Optimization of novel monobactams with activity against carbapenem-resistant Enterobacteriaceae - Identification of LYS228” (Bioorg Med Chem Lett, 2018)
Converted amounts (≈) assume the structure as drawn. Blank lines part the entries; values can stand above or below the compound they belong to.

What was measured:
[1] = Chemical stability in pH 7.4 potassium phosphate buffer assessed as half life for compound hydrolysis at 37 degC by UPLC and mass spectrometry; format: physicochemical
Escherichia coli [2] = test: microbe, parasite or virus in culture
Escherichia coli [3] = test: microbe, parasite or virus in culture; remark: listed apart in the source
Escherichia coli [4] = test: Antimicrobial activity against Escherichia coli expressing beta-lactamase NDM-1 by CLSI broth microdilution method; format: functional
Pseudomonas aeruginosa [5] = test: Antimicrobial activity against Pseudomonas aeruginosa expressing delta-mexB/mexXY/delta-ampDh2/ delta-ampD by CLSI broth microdilution method; format: functional
Pseudomonas aeruginosa [6] = test: Antimicrobial activity against Pseudomonas aeruginosa expressing nalB/delta-mexXY/delta-mexCDoprJ/delta-ampC by CLSI broth microdilution method; format: functional
Escherichia coli [7] = test: microbe, parasite or virus in culture; remark: listed apart in the source
Escherichia coli [8] = test: microbe, parasite or virus in culture; remark: listed apart in the source
Escherichia coli [9] = test: Antimicrobial activity against Escherichia coli expressing beta-lactamase KPC-2 by CLSI broth microdilution method; format: functional
Escherichia coli [10] = test: microbe, parasite or virus in culture; remark: listed apart in the source
Escherichia coli [11] = test: microbe, parasite or virus in culture; remark: listed apart in the source
Pseudomonas aeruginosa [12] = test: Antimicrobial activity against Pseudomonas aeruginosa ATCC 27853 by CLSI broth microdilution method; format: functional
Pseudomonas aeruginosa [13] = test: Antimicrobial activity against Pseudomonas aeruginosa expressing delta-mexB/delta-mexXY/delta-mexCD and delta-ampC mutant by CLSI broth microdilution method; format: functional
Escherichia coli [14] = test: microbe, parasite or virus in culture; remark: listed apart in the source
Escherichia coli [15] = test: microbe, parasite or virus in culture; remark: listed apart in the source
Escherichia coli [16] = test: Antimicrobial activity against Escherichia coli expressing beta-lactamase NDM-5 by CLSI broth microdilution method; format: functional
Escherichia coli [17] = test: microbe, parasite or virus in culture; remark: listed apart in the source
Escherichia coli [18] = test: microbe, parasite or virus in culture; remark: listed apart in the source
Escherichia coli [19] = test: microbe, parasite or virus in culture; remark: listed apart in the source
Escherichia coli [20] = test: microbe, parasite or virus in culture; remark: listed apart in the source
Escherichia coli [21] = test: microbe, parasite or virus in culture; remark: listed apart in the source
Escherichia coli [22] = test: microbe, parasite or virus in culture; remark: listed apart in the source
Escherichia coli [23] = test: microbe, parasite or virus in culture; remark: listed apart in the source
Escherichia coli [24] = test: microbe, parasite or virus in culture; remark: listed apart in the source
Escherichia coli [25] = test: microbe, parasite or virus in culture; remark: listed apart in the source
Escherichia coli [26] = test: microbe, parasite or virus in culture; remark: listed apart in the source
Escherichia coli [27] = test: microbe, parasite or virus in culture; remark: listed apart in the source
Escherichia coli [28] = test: microbe, parasite or virus in culture; remark: listed apart in the source
Escherichia coli [29] = test: Antimicrobial activity against Escherichia coli expressing beta-lactamase VEB-1 by CLSI broth microdilution method; format: functional
Escherichia coli [30] = test: microbe, parasite or virus in culture; remark: listed apart in the source
Escherichia coli [31] = test: microbe, parasite or virus in culture; remark: listed apart in the source
Escherichia coli [32] = test: microbe, parasite or virus in culture; remark: listed apart in the source
Escherichia coli [33] = test: microbe, parasite or virus in culture; remark: listed apart in the source
Escherichia coli [34] = test: microbe, parasite or virus in culture; remark: listed apart in the source
Escherichia coli [35] = test: microbe, parasite or virus in culture; remark: listed apart in the source
Escherichia coli [36] = test: microbe, parasite or virus in culture; remark: listed apart in the source
Escherichia coli [37] = test: microbe, parasite or virus in culture; remark: listed apart in the source
Escherichia coli [38] = test: microbe, parasite or virus in culture; remark: listed apart in the source
Escherichia coli [39] = test: Antimicrobial activity against Escherichia coli expressing beta-lactamase TEM-1 by CLSI broth microdilution method; format: functional
Escherichia coli [40] = test: microbe, parasite or virus in culture; remark: listed apart in the source
Escherichia coli [41] = test: microbe, parasite or virus in culture; remark: listed apart in the source
Escherichia coli [42] = test: microbe, parasite or virus in culture; remark: listed apart in the source
Escherichia coli [43] = test: microbe, parasite or virus in culture; remark: listed apart in the source
Escherichia coli [44] = test: microbe, parasite or virus in culture; remark: listed apart in the source
Escherichia coli [45] = test: microbe, parasite or virus in culture; remark: listed apart in the source
Escherichia coli [46] = test: microbe, parasite or virus in culture; remark: listed apart in the source
Escherichia coli [47] = test: microbe, parasite or virus in culture; remark: listed apart in the source
Escherichia coli [48] = test: microbe, parasite or virus in culture; remark: listed apart in the source
Escherichia coli [49] = test: microbe, parasite or virus in culture; remark: listed apart in the source
Escherichia coli [50] = test: microbe, parasite or virus in culture; remark: listed apart in the source

SMILES: CC(C)(O/N=C(\C(=O)N[C@@H]1C(=O)N(S(=O)(=O)O)[C@@H]1Cn1cncn1)c1csc(N)n1)C(=O)O (stereo in doubt)
half-life [1]: 9.71 days
MIC (Escherichia coli [2]): 1 µg/mL (≈ 1.99 µM)
MIC (Escherichia coli [3]): 0.5 µg/mL (≈ 0.995 µM)
MIC (Escherichia coli [4]): 0.5 µg/mL (≈ 0.995 µM)
MIC (Pseudomonas aeruginosa [5]): > 64 µg/mL
MIC (Pseudomonas aeruginosa [6]): > 64 µg/mL
MIC (Escherichia coli [7]): 0.5 µg/mL (≈ 0.995 µM)
MIC (Escherichia coli [8]): 16 µg/mL (≈ 31.8 µM)
MIC (Escherichia coli [9]): 1 µg/mL (≈ 1.99 µM)
MIC (Escherichia coli [10]): 8 µg/mL (≈ 15.9 µM)
MIC (Escherichia coli [11]): 1 µg/mL (≈ 1.99 µM)
MIC (Pseudomonas aeruginosa [12]): 32 µg/mL (≈ 63.7 µM)
MIC (Pseudomonas aeruginosa [13]): 1 µg/mL (≈ 1.99 µM)

SMILES: CC(C)(O/N=C(\C(=O)N[C@@H]1C(=O)N2C(C(=O)[O-])=C(C[n+]3ccccc3)CS[C@H]12)c1csc(N)n1)C(=O)O [CEFTAZIDIME]
MIC (Escherichia coli [14]): 0.25 µg/mL (≈ 0.457 µM)
MIC (Escherichia coli [15]): > 64 µg/mL
MIC (Escherichia coli [16]): > 64 µg/mL
MIC (Escherichia coli [17]): 32 µg/mL (≈ 58.5 µM)
MIC (Escherichia coli [18]): > 64 µg/mL
MIC (Escherichia coli [19]): 2 µg/mL (≈ 3.66 µM)
MIC (Escherichia coli [20]): > 64 µg/mL
MIC (Escherichia coli [21]): 0.5 µg/mL (≈ 0.915 µM)
MIC (Escherichia coli [22]): 1 µg/mL (≈ 1.83 µM)
MIC (Escherichia coli [23]): > 64 µg/mL
MIC (Escherichia coli [24]): 0.25 µg/mL (≈ 0.457 µM)
MIC (Escherichia coli [25]): 8 µg/mL (≈ 14.6 µM)
MIC (Escherichia coli [26]): > 64 µg/mL
MIC (Escherichia coli [27]): > 64 µg/mL
MIC (Escherichia coli [28]): > 64 µg/mL
MIC (Escherichia coli [29]): > 64 µg/mL
MIC (Escherichia coli [30]): 0.25 µg/mL (≈ 0.457 µM)
MIC (Escherichia coli [31]): 0.125 µg/mL (≈ 0.229 µM)
MIC (Escherichia coli [2]): > 64 µg/mL
MIC (Escherichia coli [3]): 0.125 µg/mL (≈ 0.229 µM)
MIC (Escherichia coli [4]): > 64 µg/mL
MIC (Escherichia coli [32]): 64 µg/mL (≈ 117 µM)
MIC (Escherichia coli [33]): 0.5 µg/mL (≈ 0.915 µM)
MIC (Escherichia coli [34]): > 64 µg/mL
MIC (Escherichia coli [35]): 64 µg/mL (≈ 117 µM)
MIC (Escherichia coli [36]): 0.25 µg/mL (≈ 0.457 µM)
MIC (Escherichia coli [37]): 8 µg/mL (≈ 14.6 µM)
MIC (Escherichia coli [38]): > 64 µg/mL
MIC (Escherichia coli [39]): 0.25 µg/mL (≈ 0.457 µM)
MIC (Escherichia coli [7]): 8 µg/mL (≈ 14.6 µM)
MIC (Escherichia coli [40]): > 64 µg/mL
MIC (Escherichia coli [41]): 4 µg/mL (≈ 7.32 µM)
MIC (Escherichia coli [42]): > 64 µg/mL
MIC (Escherichia coli [8]): 8 µg/mL (≈ 14.6 µM)
MIC (Escherichia coli [9]): 8 µg/mL (≈ 14.6 µM)
MIC (Escherichia coli [43]): 0.125 µg/mL (≈ 0.229 µM)
MIC (Escherichia coli [10]): 64 µg/mL (≈ 117 µM)
MIC (Escherichia coli [44]): 8 µg/mL (≈ 14.6 µM)
MIC (Escherichia coli [11]): > 64 µg/mL
MIC (Escherichia coli [45]): 4 µg/mL (≈ 7.32 µM)
MIC (Escherichia coli [46]): 0.125 µg/mL (≈ 0.229 µM)
MIC (Escherichia coli [47]): 0.125 µg/mL (≈ 0.229 µM)
MIC (Escherichia coli [48]): > 64 µg/mL
MIC (Escherichia coli [49]): 16 µg/mL (≈ 29.3 µM)
MIC (Escherichia coli [50]): 64 µg/mL (≈ 117 µM)

MIC (Escherichia coli [14]): 0.06 µg/mL (≈ 0.132 µM)
half-life [1]: 41.2 days
MIC (Escherichia coli [2]): 32 µg/mL (≈ 70.6 µM)
MIC (Escherichia coli [3]): 0.125 µg/mL (≈ 0.276 µM)
MIC (Escherichia coli [4]): 0.125 µg/mL (≈ 0.276 µM)
MIC (Escherichia coli [7]): 0.25 µg/mL (≈ 0.551 µM)
MIC (Escherichia coli [8]): 4 µg/mL (≈ 8.82 µM)
MIC (Escherichia coli [9]): 1 µg/mL (≈ 2.21 µM)
SMILES: CC(C)(O/N=C(/C(=O)N[C@@H]1C(=O)N(S(=O)(=O)O)[C@@H]1CF)c1csc(N)n1)C(=O)O (stereo in doubt)

SMILES: CO/N=C(\C(=O)N[C@@H]1C(=O)N2C(C(=O)[O-])=C(C[N+]3(C)CCCC3)CS[C@H]12)c1csc(N)n1
MIC (Escherichia coli [14]): 0.125 µg/mL (≈ 0.26 µM)
MIC (Escherichia coli [20]): 4 µg/mL (≈ 8.32 µM)
MIC (Escherichia coli [21]): 0.25 µg/mL (≈ 0.52 µM)
MIC (Escherichia coli [22]): 1 µg/mL (≈ 2.08 µM)
MIC (Escherichia coli [23]): 4 µg/mL (≈ 8.32 µM)
MIC (Escherichia coli [25]): 0.125 µg/mL (≈ 0.26 µM)
MIC (Escherichia coli [28]): 4 µg/mL (≈ 8.32 µM)
MIC (Escherichia coli [30]): 0.125 µg/mL (≈ 0.26 µM)
MIC (Escherichia coli [3]): ≤ 0.03 µg/mL
MIC (Escherichia coli [32]): 0.25 µg/mL (≈ 0.52 µM)
MIC (Escherichia coli [33]): 0.125 µg/mL (≈ 0.26 µM)
MIC (Escherichia coli [35]): 1 µg/mL (≈ 2.08 µM)
MIC (Escherichia coli [7]): 16 µg/mL (≈ 33.3 µM)
MIC (Escherichia coli [40]): 0.25 µg/mL (≈ 0.52 µM)
MIC (Escherichia coli [42]): 16 µg/mL (≈ 33.3 µM)
MIC (Escherichia coli [43]): 0.125 µg/mL (≈ 0.26 µM)
MIC (Escherichia coli [10]): 0.125 µg/mL (≈ 0.26 µM)
MIC (Escherichia coli [11]): 1 µg/mL (≈ 2.08 µM)
MIC (Escherichia coli [47]): 0.25 µg/mL (≈ 0.52 µM)
MIC (Escherichia coli [48]): 1 µg/mL (≈ 2.08 µM)
MIC (Escherichia coli [50]): 1 µg/mL (≈ 2.08 µM)

SMILES: Nc1nc(/C(=N/OC2(C(=O)O)CC2)C(=O)N[C@@H]2C(=O)N(S(=O)(=O)O)[C@H]2CN2CCOC2=O)cs1 (stereo in doubt)
half-life [1]: 18.8 days
MIC (Escherichia coli [2]): 64 µg/mL (≈ 123 µM)
MIC (Escherichia coli [3]): 0.25 µg/mL (≈ 0.482 µM)
MIC (Escherichia coli [4]): 0.25 µg/mL (≈ 0.482 µM)
MIC (Pseudomonas aeruginosa [5]): > 64 µg/mL
MIC (Pseudomonas aeruginosa [6]): > 64 µg/mL
MIC (Escherichia coli [7]): 0.5 µg/mL (≈ 0.964 µM)
MIC (Escherichia coli [8]): 0.5 µg/mL (≈ 0.964 µM)
MIC (Escherichia coli [9]): 0.5 µg/mL (≈ 0.964 µM)
MIC (Escherichia coli [10]): 2 µg/mL (≈ 3.86 µM)
MIC (Escherichia coli [11]): 32 µg/mL (≈ 61.7 µM)
MIC (Pseudomonas aeruginosa [12]): > 64 µg/mL
MIC (Pseudomonas aeruginosa [13]): 2 µg/mL (≈ 3.86 µM)
